# How the values were obtained:
# [1] = test system: TUBO cells; test: TUBO tumor size after aHER2, DOXORUBICIN or their combination; format: in vivo, mouse; conditions: DOXORUBICIN alone (5 or 15 mg/kg), intratumoral
# Description: (§1) Cultured cancer cells were trypsinized, washed with media, and injected s.c. on the back. Tumor size was determined at 3-4 day intervals. Tumor volumes were measured along three orthogonal axes (a, b, and c) and calculated as tumor volume=abc/2.
# Combination therapy of aHER2 and a chemotherapeutic could show the same reduction in efficacy due to the immunosuppressive action of the chemotherapeutic. To show this, 1×10^6 TUBO cells were injected into Balb/c mice. After the tumor was well-established, the mice were separated into groups subject to the following groups of treatments: (i) 80 μg mIgG only, (ii) 80 μg aHER2 only, (iii) 5 mg/kg DOXORUBICIN only, (iv) 15 mg/kg DOXORUBICIN only, (v) a combination of 80 μg aHER2 and 5 mg/kg DOXORUBICIN, and (vi) a combination of 80 μg aHER2 and 15 mg/kg DOXORUBICIN. The antibodies and chemotherapeutic were administered intratumorally, the time injections and tumor size measurements were taken at 19 and 26 days after tumor injection.
# [2] = test system: 4T1 tumor cells; test: 4T1 lung metastases colonogenic assay, radiation therapy with or without paclitaxel; format: in vivo, mouse
# Source text: For surgical excision of primary 4T1 and B16-CCR7 tumors, mice were anesthetized, and tumors were resected with sterilized instruments. A colonogenic assay was used to evaluate metastases in 4T1 and B16-CCR7 tumors as described in B. A. Pulaski, S. Ostrand-Rosenberg, Curr Protoc Immunol Chapter 20, Unit 20 2 (May, 2001), incorporated herein by reference in its entirety. Lungs for 4T1 tumor or DLN for B16-CCR7 were collected, chopped and dissociated in DMEM supplemented with 10% FCS containing 1.5 mg/ml collagenase type D (Sigma-Aldrich) for 20 min in 37° C. shaking incubator. Single cell suspensions were plated at various dilutions in media supplemented with 10% FCS and selection drug. 4T1 is resistant to 6-thioguanine ([…]) and B16-CCR7 is resistant to G418 (0.7 mg/ml). Individual colonies representing micrometastases were counted after 5-10 days.
# 1×10^5 4T1 tumor cells were injected s.c. to the Balb/c mice, and the mice received 15 Gy of radiation on each days 12, 13, and 14.
# [3] = test system: 4T1 tumor cells; test: 4T1 breast tumor model, primary tumor growth, radiation therapy with or without paclitaxel; format: in vivo, mouse; conditions: paclitaxel 20 mg/kg i.p. on days 7 and 14 after radiation therapy (15 Gy x3), Balb/c mice
# Description: The mice were irradiated using an x-ray generator (PCM 1000; Pantak) at the doses indicated by each experiment. Each mouse was protected with a lead cover with only tumor exposed, allowing local irradiation. For systemic chemotherapy, tumor-bearing mice were injected i.p. with 20 mg/kg paclitaxel (Ameristat Pharmaceuticals) for 4T1 bearing mice and 200 mg/kg dacarbazine (Bedford Laboratories) for B16 bearing mice.
# as §1
# A 4T1 breast tumor model was used to show the results of the test on a different type of tumor. 1×10^5 4T1 tumor cells were injected and allowed to establish for 14 days. Balb/c control mice receive the breast cancer cells and no radiation, and other mice receive radiation therapy only, chemotherapy only, or a combination of radiation therapy followed by chemotherapy. The mice receiving radiation received a dose of 15 Gy on each of days 14, 15, and 16. On days 7 and 14 following radiation therapy, the mice receiving a combination of radiation therapy and chemotherapy received 20 mg/kg paclitaxel i.p.
# [4] = test system: CD8+ 2C transgenic T-cells; conditions: chemotherapy (dacarbazine) alone, compared to the control mice
# Description: Lymph node (LN) cells and splenocytes (SP) were isolated from 2C TCR Tg mice. […] Cells were isolated from the inguinal LNs (DLNs), SP, or tumors at the time indicated. CFSE dilution was evaluated as described in Yu, at Id.
# In order to identify the effects of the chemotherapy on CD8+ T-cell priming, 5×10^5 B16-SIY melanoma cells were injected s.c. in the B6 mice. On day 17, 2×10^6 CFSE labeled naïve CD8+ 2C transgenic T-cells were adoptively transferred into the B16-SIY tumor bearing mice. The mice were treated locally with 20 Gy of radiation on day 0 following the transfer. 200 mg/kg dacarbazine i.p. was given two days after the adoptive transfer, and DLN and SP were harvested on day 21 to determine the CFSE dilution in the DLN and SP.
compound,measurement,setting,value
COc1cccc2c1C(=O)c1c(O)c3c(c(O)c1C2=O)C[C@@](O)(C(=O)CO)C[C@@H]3O[C@H]1C[C@H](N)[C@H](O)[C@H](C)O1 [DOXORUBICIN],tumor burden,[1],reduces tumor burden
CC(=O)O[C@H]1C(=O)[C@@]2(C)[C@H]([C@H](OC(=O)c3ccccc3)[C@]3(O)C[C@H](OC(=O)[C@H](O)[C@@H](NC(=O)c4ccccc4)c4ccccc4)C(C)=C1C3(C)C)[C@]1(OC(C)=O)CO[C@@H]1C[C@@H]2O [paclitaxel],degree of metastases in the lungs,"[2]; chemotherapy (paclitaxel) alone, compared to the control mice",little effect on the degree of metastases in the lungs
same,increase in tumor colonies in the lungs,"[2]; paclitaxel 20 mg/kg i.p. on days 7 and 14 after radiation therapy (15 Gy x3), versus radiation therapy alone",100 fold
same,tumor regression,[3],significantly hindered melanoma tumor regression and promoted tumor outgrowth
CN(C)/N=N/c1[nH]cnc1C(N)=O [dacarbazine],proliferation of cytotoxic lymphocytes (CTL),[4],did not elicit proliferation of cytotoxic lymphocytes (CTL)
